Measurements as given in article PMC9053583, “A novel series of phenolic temozolomide (TMZ) esters with 4 to 5-fold increased potency, compared to TMZ, against glioma cells irrespective of MGMT expression” (RSC Advances, 2020).
Read-outs that look alike come from different tables or passages of the source.

Tests used:
U87-MG cells = assay: CellTiter-Glo cytotoxicity against U87-MG cells; type: cell-based; details: Homo sapiens, U-87 MG, 144 hours incubation, IC50 ± SD (n = 3)
Procedure: (§1) Apoptosis of glioma cells induced by TMZ, occurs at least 120 hours after treatment.[7] Consequently, cells were incubated for 144 hours with specified TMZ analogues in the in vitro investigations in order to obtain more reliable IC50 values.
(§2) 1321-N1 (human astrocytoma) was maintained in DMEM medium supplemented with 2 mM L-glutamine and 10% FBS. GOS-3, (human brain mixed astro-oligodendroglioma) was maintained in DMEM medium supplemented with 2 mM L-glutamine and 10% […]. U87-MG, (human glioblastoma) and SVGp12 (normal human astroglia) were maintained in EMEM medium supplemented with 2 mM L-glutamine, 1 mM sodium pyruvate and 10% FBS. All cell lines were incubated at 37 °C and 5% CO2 in a humidified incubator. Primary BTNW cultures were maintained in Ham's F10 nutrient mixture, containing 20 mM HEPES, 2 mM glutamine and 10% FBS. Primary cultures were incubated in a humidified incubator at 37 °C.
(§3) Cells were seeded in the appropriate media in each well of a Costar 96-well plate at a density of 5 × 10^2 immortalised cells; 2 × 10^3 (primary cells). The plates were incubated at 37 °C and 5% CO2 in a humidified incubator for 24 hours to allow cells to adhere. Each of the drugs tested were dissolved in DMSO to afford a 200 mM stock solution. The stock solutions were diluted with medium to afford the final working concentrations, ensuring DMSO concentration was no greater than 0.5% (v/v). Drug concentrations were added to the cells and incubated for 144 hours. After incubation, the drug concentrations were removed and replaced with 100 μL of CellTiter-Glo® and 100 μL of media. The luminescence of each well was measured on GENios Pro plate reader. The results for each of the drug concentrations were expressed as a percentage of the control wells. For cell lines, the regression equation for a polynomial line of best fit of order 2 was used to calculate the IC50. In the case of the in vitro model used in the present study, the IC50 was defined as the concentration of drug that results in a 50% reduction in oxyluciferin production. Primary culture cells were incubated with clinically relevant concentrations for 144 hours. Viability was expressed as a percentage of the control wells. Each experiment involving cell lines was carried out in triplicate of triplicates. Experiments using patient derived primary cultures were carried out in triplicate.
(§4) Initial screening of the 25 analogues was completed using the U87-MG cell line. The most promising analogues from the initial screening were taken forward and tested against the 1321-N1, GOS-3 and SVG-p12 cell lines. The results of all 4 cell lines were compiled and the analogues that were deemed to be the most promising drug candidates were tested against primary cultures at clinically relevant concentrations.

[1] = Solubility in cell culture medium; type: physicochemical
Procedure: The maximum concentration that could be achieved in medium for amide analogues 4a and 4c was approximately 200 μM, at which IC50 values could not be generated and were also eliminated from further studies.
as §3

1321-N1 = assay: CellTiter-Glo cytotoxicity against 1321-N1 cells; type: cell-based; details: Homo sapiens, 144 hours incubation, IC50 ± SD (n = 3)
Procedure: as §1, §2, §3, §4

GOS-3 = assay: CellTiter-Glo cytotoxicity against GOS-3 cells; type: cell-based; details: Homo sapiens; 144 hours incubation, IC50 ± SD (n = 3)
Procedure: as §1, §2, §3, §4

SVGp12 = assay: CellTiter-Glo cytotoxicity against normal SVGp12 cell line; type: cell-based; details: Homo sapiens, 144 hours incubation, IC50 ± SD (n = 3)
Procedure: as §1, §2, §3, §4

BTNW914 (MGMT−) = assay: Cell viability of patient derived primary GBM culture BTNW914 (MGMT−); type: cell-based, human; details: 6 days incubation
Procedure: (§5) Fig. 2 (A) Cell viability of BTNW914 (MGMT−) after treatment by TMZ and phenyl TMZ ester analogues at various clinically relevant concentrations and incubation for 6 days. (B) Cell Viability of BTNW374 (MGMT+) after treatment by TMZ and phenyl TMZ ester analogues at various clinically relevant concentrations. Values are reported as the percentage of viable cells ± SD, n = 3.
(§6) Cytotoxic evaluation of the analogues was completed against 4 cell lines and 2 primary GBM cultures. The human glioma cell lines, GOS-3, U87-MG and 1321-N1 along with the human astroglial cell line, SVGp12, were purchased from The European Collection of Cell Cultures (ECCAC, UK) and Deutsche Sammlung von Mikroorganismen und Zellkulturen (DMSZ, Germany). Patient derived primary GBM cultures, BTNW374 and BTNW914, were obtained from The Brain Tumour North West Tissue Bank in collaboration with The Royal Preston Hospital. Patient data for primary cells was included as part of the ESI. ^†
as §2, §3

BTNW374 (MGMT+) = assay: Cell viability of patient derived primary GBM culture BTNW374 (MGMT+); type: cell-based, human; details: human, 144 h, 75 μM
Procedure: as §5, §6, §2, §3

[2] = initial screening, CellTiter-Glo, read-out: IC50 against U87-MG cells
[3] = lead analogues (Table 2), read-out: IC50 U87-MG

Row | solubility in cell culture medium [1] | melting point [°C] | Structure (SMILES) | IC50 (U87-MG cells; [2]) [µM] | other results
1 | insoluble | 138 | CCCCCCNC(=O)c1ncn2c(=O)n(C)nnc12 [Analogue 4a, N-Hexyl-3-methyl-4-oxo-3,4-dihydroimidazo[5,1-d][1,2,3,5]tetrazine-8-carboxamide] | > 200 | maximum concentration that could be achieved in medium [1]: approximately 200 μM
2 |  | 158 | Cn1nnc2c(C(=O)NCCc3ccccc3)ncn2c1=O [Analogue 4b, 3-Methyl-4-oxo-N-phenethyl-3,4-dihydroimidazo[5,1-d] [1,2,3,5]tetrazine-8-carboxamide] | 548 ± 48 | 
3 | insoluble | 234 | Cn1nnc2c(C(=O)Nc3ccc(C#N)cc3)ncn2c1=O [Analogue 4f, N-(4-Cyanophenyl)-3-methyl-4-oxo-3,4-dihydroimidazo[5,1-d][1,2,3,5]tetrazine-8-carboxamide] |  | 
4 |  | 152 | Cc1ccc(CNC(=O)c2ncn3c(=O)n(C)nnc23)cc1 [Analogue 4j, 3-Methyl-N-(4-methylbenzyl)-4-oxo-3,4-dihydroimidazo[5,1-d][1,2,3,5]tetrazine-8-carboxamide] | 139 ± 28 | 
5 | insoluble | 170 | COc1ccc(COC(=O)c2ncn3c(=O)n(C)nnc23)cc1 [Analogue 3f, 4-Methoxybenzyl 3-methyl-4-oxo-3,4-dihydroimidazo[5,1-d][1,2,3,5]tetrazine-8-carboxylate] |  | 
6 | insoluble | 187 | Cn1nnc2c(C(=O)OCCc3ccc([N+](=O)[O-])cc3)ncn2c1=O [Analogue 3d, 4-Nitrophenethyl 3-methyl-4-oxo-3,4-dihydroimidazo[5,1-d][1,2,3,5]tetrazine-8-carboxylate] |  | 
7 |  | 124 | Cn1nnc2c(C(=O)OCCc3ccccc3)ncn2c1=O [Analogue 3c, Phenethyl 3-methyl-4-oxo-3,4-dihydroimidazo[5,1-d][1,2,3,5]tetrazine-8-carboxylate] | 615 ± 96 | 
8 |  | 190 | Cn1nnc2c(C(=O)Oc3ccc([N+](=O)[O-])cc3)ncn2c1=O [Analogue 3i, 4-Nitrophenyl 3-methyl-4-oxo-3,4-dihydroimidazo [5,1-d][1,2,3,5] tetrazine-8-carboxylate] | 142 ± 3 | IC50 (U87-MG cells; [3]): 141 ± 3 µM; IC50 (1321-N1): 104 ± 4 µM; IC50 (GOS-3): 91 ± 1 µM; IC50 (SVGp12): 39 ± 2 µM; IC50 (BTNW914 (MGMT−); Homo sapiens, 144 h, read-out: IC50 against MGMT devoid GBM primary cells): < 15 µM; cytotoxicity against MGMT positive patient derived primary culture (BTNW374 (MGMT+)): generated cytotoxicity at 75 μM
9 | insoluble | 189 | Cn1nnc2c(C(=O)Nc3ccccc3)ncn2c1=O [Analogue 4c, 3-Methyl-4-oxo-N-phenyl-3,4-dihydroimidazo[5,1-d][1,2,3,5]tetrazine-8-carboxamide] | > 200 | maximum concentration that could be achieved in medium [1]: approximately 200 μM
10 |  | 204 | CN(C)CCCOC(=O)c1ncn2c(=O)n(C)nnc12 [Analogue 3g, 3-(Dimethylamino)propyl 3-methyl-4-oxo-3,4-dihydroimidazo[5,1-d][1,2,3,5]tetrazine-8-carboxylate] | 856 ± 20 | 
11 |  | 149 | Cn1nnc2c(C(=O)Oc3ccccc3)ncn2c1=O [Analogue 3l, Phenyl 3-methyl-4-oxo-3,4-dihydroimidazo[5,1-d][1,2,3,5]tetrazine-8-carboxylate] | 331 ± 47 | IC50 (U87-MG cells; [3]): 330 ± 47 µM; IC50 (1321-N1): 511 ± 10 µM; IC50 (GOS-3): 691 ± 35 µM; IC50 (SVGp12): 238 ± 6 µM; reduction in viability against MGMT devoid GBM cells (BTNW914 (MGMT−); at 75 μM): greater than 50%
12 | insoluble | 148 | Cn1nnc2c(C(=O)NCc3ccc(Cl)cc3)ncn2c1=O [Analogue 4k, N-(4-Chlorobenzyl)-3-methyl-4-oxo-3,4-dihydroimidazo[5,1-d][1,2,3,5]tetrazine-8-carboxamide] |  | IC50 (U87-MG cells; [3]): 138 ± 28 µM; IC50 (1321-N1): > 200 µM; IC50 (GOS-3): > 200 µM; IC50 (SVGp12): 79 ± 6 µM
13 | insoluble | 200 | Cn1nnc2c(C(=O)Nc3ccc(Cl)cc3)ncn2c1=O [Analogue 4e, N-(4-Chlorophenyl)-3-methyl-4-oxo-3,4-dihydroimidazo[5,1-d][1,2,3,5]tetrazine-8-carboxamide] |  | 
14 |  | 76 | CCCCCCOC(=O)c1ncn2c(=O)n(C)nnc12 [Analogue 3b, Hexyl 3-methyl-4-oxo-3,4-dihydroimidazo[5,1-d][1,2,3,5]tetrazine-8-carboxylate] | 409 ± 45 | IC50 (U87-MG cells; [3]): 409 ± 45 µM; IC50 (1321-N1): 269 ± 20 µM; IC50 (GOS-3): 269 ± 6 µM; IC50 (SVGp12): 182 ± 11 µM
15 |  | 165 | COc1ccccc1OC(=O)c1ncn2c(=O)n(C)nnc12 [Analogue 3m, 2-Methoxyphenyl 3-methyl-4-oxo-3,4-dihydroimidazo[5,1-d][1,2,3,5]tetrazine-8-carboxylate] | 576 ± 91 | 
16 | insoluble | 192 | COc1ccc(NC(=O)c2ncn3c(=O)n(C)nnc23)cc1 [Analogue 4d, N-(4-Methoxyphenyl)-3-methyl-4-oxo-3,4-dihydroimidazo[5,1-d][1,2,3,5]tetrazine-8-carboxamide] |  | 
17 | insoluble | 193 | COc1ccc(CNC(=O)c2ncn3c(=O)n(C)nnc23)cc1 [Analogue 4i, N-(4-Methoxybenzyl)-3-methyl-4-oxo-3,4-dihydroimidazo[5,1-d][1,2,3,5]tetrazine-8-carboxamide] |  | 
18 | insoluble | 193 | COc1ccccc1NC(=O)c1ncn2c(=O)n(C)nnc12 [Analogue 4h, N-(2-Methoxyphenyl)-3-methyl-4-oxo-3,4-dihydroimidazo[5,1-d][1,2,3,5]tetrazine-8-carboxamide] |  | 
19 |  |  | Cn1nnc2c(C(=O)O)ncn2c1=O [TMZ acid, 3-methyl-4-oxo-3,4-dihydroimidazo[5,1-d][1,2,3,5]tetrazine-8-carboxylic acid] | 662 ± 42 | IC50 (U87-MG cells; [3]): 662 ± 42 µM; IC50 (1321-N1): 596 ± 26 µM; IC50 (GOS-3): 504 ± 30 µM; IC50 (SVGp12): 316 ± 2 µM
20 | insoluble | 209 | Cc1ccc(NC(=O)c2ncn3c(=O)n(C)nnc23)cc1 [Analogue 4g, 3-Methyl-4-oxo-N-(p-tolyl)-3,4-dihydroimidazo[5,1-d][1,2,3,5]tetrazine-8-carboxamide] |  | 
21 |  | 130 | CCOC(=O)c1ncn2c(=O)n(C)nnc12 [Analogue 3a, Ethyl 3-methyl-4-oxo-3,4-dihydroimidazo[5,1-d][1,2,3,5]tetrazine-8-carboxylate] | 700 ± 109 | 
22 | insoluble | 164 | COc1ccc(CCOC(=O)c2ncn3c(=O)n(C)nnc23)cc1 [Analogue 3e, 4-Methoxyphenethyl 3-methyl-4-oxo-3,4-dihydroimidazo[5,1-d][1,2,3,5]tetrazine-8-carboxylate] |  | 
